What was measured:
Test in all cases: Stability of Fe-S cluster binding of purified NEET protein (absorbance 458 nm)
Type in all cases: biochemical
[1] = molecular target: T1, CISD3 Gene Product (Miner2) (Homo sapiens, UniProt P0C7P0); settings: for Residual cluster bound at end of experiment (Percentage Absorbance 458 nm at time zero): CISD3 gene product 20 μM, pH 6, at 180 minutes, vehicle control 11%; for Residual cluster bound at end of experiment (Percentage Absorbance 458 nm at time zero) / Time (in minutes) to achieve 50% loss of bound cluster (Absorbance 458 nm): compound 60 μM; for Time (in minutes) to achieve 50% loss of bound cluster (Absorbance 458 nm): Miner2 20 μM, pH 6, 37° C., run time 180 minutes, vehicle control 60; for Stabiliser or destabiliser of Fe-S cluster binding by CISD3 Gene Product (Miner2): time to 50% cluster loss changed by more than 25% compared to the Control sample, at the concentrations tested
T1 sequence (P0C7P0 15-127): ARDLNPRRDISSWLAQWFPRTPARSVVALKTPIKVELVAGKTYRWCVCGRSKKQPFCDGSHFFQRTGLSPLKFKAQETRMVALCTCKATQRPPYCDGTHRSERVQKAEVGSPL
How it was run: (§1)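 Purified NEET protein (20 μM) with compound (60 μM, 1:3 molar ratio) in 100 mM Bis-Tris pH 6, 100 mM NaCl, 66 μM DMSO at 37 °C; 458 nm absorbance decay read every 5 min for 500 min (NAF-1) or 180 min (mitoNEET, Miner2). Outputs: time to 50% absorbance loss and residual % bound cluster, versus protein alone.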

[2] = molecular target: T2, CISD1 Gene Product (mitoNEET) (Homo sapiens, UniProt Q9NZ45); settings: for Time (in minutes) to achieve 50% loss of bound cluster (Absorbance 458 nm) / Residual cluster bound at end of experiment (Percentage Absorbance 458 nm at time zero): mitoNEET 20 μM, compound 60 μM; for Time (in minutes) to achieve 50% loss of bound cluster (Absorbance 458 nm): pH 6, 37° C., run time 180 minutes, vehicle control 80; for Residual cluster bound at end of experiment (Percentage Absorbance 458 nm at time zero): pH 6, at 180 minutes, vehicle control 16%
T2 sequence (Q9NZ45 33-108 limits assumed): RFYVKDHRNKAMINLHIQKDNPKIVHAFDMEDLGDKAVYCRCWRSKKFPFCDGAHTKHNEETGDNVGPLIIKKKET
How it was run: as §1

[3] = molecular target: T3, CISD2 Gene Product (NAF-1) (Homo sapiens, UniProt Q8N5K1); settings: NAF-1 20 μM, compound 60 μM; for Time (in minutes) to achieve 50% loss of bound cluster (Absorbance 458 nm): pH 6, 37° C., run time 500 minutes, vehicle control 310 or 210; for Residual cluster bound at end of experiment (Percentage Absorbance 458 nm at time zero): pH 6, at 500 minutes, vehicle control 3%
T3 sequence (Q8N5K1 57-135 limits assumed): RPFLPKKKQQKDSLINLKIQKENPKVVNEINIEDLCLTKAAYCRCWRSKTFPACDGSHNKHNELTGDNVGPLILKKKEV
How it was run: as §1

Structure (SMILES)	Residual cluster bound at end of experiment (Percentage Absorbance 458 nm at time zero) [1]	Time (in minutes) to achieve 50% loss of bound cluster (Absorbance 458 nm) [1]	Stabiliser or destabiliser of Fe-S cluster binding by CISD3 Gene Product (Miner2) [1]	Time (in minutes) to achieve 50% loss of bound cluster (Absorbance 458 nm) [2]	Residual cluster bound at end of experiment (Percentage Absorbance 458 nm at time zero) [2]	Time (in minutes) to achieve 50% loss of bound cluster (Absorbance 458 nm) [3]	Residual cluster bound at end of experiment (Percentage Absorbance 458 nm at time zero) [3]	Stabiliser or destabiliser of Fe-S cluster binding by CISD1 Gene Product (mitoNEET) ([2]; time to 50% cluster loss changed by more than 25% compared to the Control sample, at the concentrations tested)
CC1(C)CCc2sc(NC(=O)c3ccccc3)c(C(=O)O)c21 [Compound #37, 2-Benzamido-4,4-dimethyl-5,6-dihydrocyclopenta[b]thiophene-3-carboxylic acid]	37% (11%)	75 (60) minutes	Stabilisers	85 (80) minutes	23% (16%)	280 (210) minutes	3% (3%)	
CC1(C)Cc2c(sc(NC(=O)c3ccc(N4CCOCC4)cc3)c2C(=O)O)C(C)(C)C1 [Compound #36, 5,5,7,7-Tetramethyl-2-[(4-morpholinobenzoyl)amino]-4,6-dihydrobenzothiophene-3-carboxylic acid]	39% (11%)	80 (60) minutes	Stabilisers	98 (80) minutes	36 % (16%)	210 (210) minutes	30% (3%)	
COC1CN(c2ccc(C(=O)Nc3sc4c(c3C(=O)O)CC(C)(C)CC4(C)C)cc2)C1 [Compound #58, 2-[[4-(3-Methoxyazetidin-1-yl)benzoyl]amino]-5,5,7,7-tetramethyl-4,6-dihydrobenzothiophene-3-carboxylic acid]	44% (11%)	125 (60) minutes	Stabilisers	100 (80) minutes	36% (16%)	280 (310) minutes	39% (3%)	stabilisers
